This is an account of results in article PMC5441849, “Carvacrol derivatives as mushroom tyrosinase inhibitors; synthesis, kinetics mechanism and molecular docking studies” (PLoS ONE, 2017).

“Also recorded” adds a separate entry of the source. Like-named read-outs stand apart in the source and are kept apart here.

For test [1], the target named is T1, mushroom tyrosinase (Agaricus bisporus, UniProt C7FF04).
T1 construct: purchased Sigma
Briefly: Reversibility of inhibition (remaining enzyme activity versus enzyme concentration). The test is classed as biochemical, Agaricusbisporus. The settings on record: enzyme 2 to 10 μg/mL, L-DOPA, 37°C. Here is the method:
Assay conditions were same as described in assay protocolexceptthat the final concentration of enzyme was varied (2 to 10 μg/mL).

Test [2] deals with T1, mushroom tyrosinase. In words: Kinetic analysis of tyrosinase inhibition (Lineweaver-Burk and Dixon plots, diphenolase activity). The test is classed as biochemical, Agaricusbisporus. As to conditions: for Type of inhibition: Lineweaver-Burk plots, oxidation of L-DOPA. Here is the method:
Pre-incubation and measurement time was the same as discussed in mushroom tyrosinase inhibition assay protocol. Formation of DOPAchrome was continuously monitored at 475nm for 5min at a 30s interval in the microplate reader after addition of enzyme.

[3] abbreviates: Dixon plot, L-DOPA substrate, read-out: Inhibition constant Ki.

By Ki is commonly meant the equilibrium dissociation constant of an inhibitor or competing ligand from its target.

T1 sequence (C7FF04 2-392): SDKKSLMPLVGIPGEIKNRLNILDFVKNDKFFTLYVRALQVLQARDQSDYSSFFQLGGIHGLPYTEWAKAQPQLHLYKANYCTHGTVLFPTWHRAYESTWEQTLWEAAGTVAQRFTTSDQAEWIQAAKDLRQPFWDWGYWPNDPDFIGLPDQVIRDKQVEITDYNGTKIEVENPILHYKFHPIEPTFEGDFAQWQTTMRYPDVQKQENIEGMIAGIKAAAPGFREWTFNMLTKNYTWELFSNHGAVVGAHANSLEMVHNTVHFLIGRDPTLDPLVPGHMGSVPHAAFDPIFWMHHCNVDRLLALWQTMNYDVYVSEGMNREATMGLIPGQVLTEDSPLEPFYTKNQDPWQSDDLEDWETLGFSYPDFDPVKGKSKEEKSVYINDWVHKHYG

Turning to `Cc1ccc(C(C)C)cc1OC(=O)COC(=O)c1ccc(O)cc1O` [4c, 2-[2-methyl-5-(propan-2-yl)phenoxy]-2-oxoethyl 2,4-dihydroxybenzoate], the “Reversibility of enzyme inhibition” value at mushroom tyrosinase [1] is reported as “reversible inhibitor; also recorded: reversibly”. Besides, the Ki at mushroom tyrosinase [2] (setting [3]) came out at 19 µM. For the same compound, the Type of inhibition entry on mushroom tyrosinase [2] is “mixed-type inhibition”.
As for `Cc1ccc(C(C)C)cc1OC(=O)COC(=O)/C=C/c1ccc(O)cc1` [6b, 2-[2-methyl-5-(propan-2-yl)phenoxy]-2-oxoethyl (2E)-3-(4-hydroxyphenyl)prop-2-enoate], at mushroom tyrosinase [1], the “Reversibility of enzyme inhibition” value is reported as “irreversible”. Moreover, the Ki at mushroom tyrosinase [2] (setting [3]) stood at 10 µM. The Type of inhibition result at mushroom tyrosinase [2] was “mixed-type inhibition”.
Turning to `Cc1ccc(C(C)C)cc1OC(=O)COC(=O)/C=C/c1ccc(O)cc1O` [6c, 2-[2-methyl-5-(propan-2-yl)phenoxy]-2-oxoethyl (2E)-3-(2,4-dihydroxyphenyl)prop-2-enoate], the “Reversibility of enzyme inhibition” value at mushroom tyrosinase [1] is “irreversible; also recorded: irreversibly”. Moreover, on mushroom tyrosinase [2], the affinity corresponds to a Ki of 0.05 µM and the Type of inhibition result is “non-competitive inhibitor”.
